# According to patent US9914730B2, “Azaquinazoline inhibitors of Atypical protein Kinase C” (Ignyta, Inc., priority 2012, dated 2018):
# Molecular target: T1, full-length human PKCι (Homo sapiens, UniProt P41743)
# T1 construct: Recombinant, full-length human PKCι expressed in Sf21 insect cells is also commercially available; purchased; host or cells: Sf21 insect cells
# T1 sequence (P41743 1-596): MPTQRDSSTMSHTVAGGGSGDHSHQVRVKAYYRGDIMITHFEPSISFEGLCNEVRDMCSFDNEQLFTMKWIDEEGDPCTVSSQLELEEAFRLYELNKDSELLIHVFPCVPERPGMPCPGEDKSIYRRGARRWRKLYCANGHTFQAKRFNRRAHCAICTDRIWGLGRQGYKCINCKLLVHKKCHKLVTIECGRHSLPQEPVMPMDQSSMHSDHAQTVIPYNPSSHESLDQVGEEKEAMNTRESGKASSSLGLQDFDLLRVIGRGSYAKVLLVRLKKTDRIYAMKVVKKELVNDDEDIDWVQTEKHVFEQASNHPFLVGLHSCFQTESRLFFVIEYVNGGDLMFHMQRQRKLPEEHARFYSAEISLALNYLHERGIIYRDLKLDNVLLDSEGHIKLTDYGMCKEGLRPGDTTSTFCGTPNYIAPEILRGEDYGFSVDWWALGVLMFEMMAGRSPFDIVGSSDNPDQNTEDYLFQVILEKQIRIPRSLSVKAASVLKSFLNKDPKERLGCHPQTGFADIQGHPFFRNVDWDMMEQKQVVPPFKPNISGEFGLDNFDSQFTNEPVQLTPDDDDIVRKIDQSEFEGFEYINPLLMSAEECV
# Experiment: PKCι IC50 IMAP assay, full-length PKCι at 150 μM ATP
# Format: biochemical
# Details: read-out: IC50 in IMAP assay against full length PKCi at 150 μM ATP
# Outline: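 IMAP fluorescence polarisation (ex 485/em 530 nm) read-out; % inhibition set from no-compound (0%) and no-enzyme (100%) controls, IC50 from dose-response curve fit. Sf21-expressed full-length enzyme ~15 pM, 100 nM FAM peptide, ATP 150 μM (5× KM^APP), 60 min at RT.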
row,IC50 [nM],SMILES
1,< 100,"Fc1cccc(F)c1Nc1cc(-c2nc(N[C@@H]3CCNC3)c3c(C4CC4)cncc3n2)ccn1 [Example 2035, {5-Cyclopropyl-2-[2-(2,6-difluoro-phenylamino)-pyridin-4-yl]-pyrido[3,4-d]pyrimidin-4-yl}-(R)-pyrrolidin-3-yl-amine]"
2,< 100,"CNCCNc1nc(-c2ccnc(Nc3c(F)cccc3F)c2)nc2cncc(C3CC3)c12 [Example 775, N-{5-Cyclopropyl-2-[2-(2,6-difluoro-phenylamino)-pyridin-4-yl]-pyrido[3,4-d]pyrimidin-4-yl}-N′-methyl-ethane-1,2-diamine]"
3,< 100,"CC1(C)CN(c2nc(-c3ccnc(Nc4c(F)cccc4F)c3)nc3cncc(C4CC4)c23)CCN1 [Example 718, {4-[5-Cyclopropyl-4-(3,3-dimethyl-piperazin-1-yl)-pyrido[3,4-d]pyrimidin-2-yl]-pyridin-2-yl}-(2,6-difluoro-phenyl)-amine]"
4,100 to 1000,"OCCN1CCN(c2nc(-c3ccnc(Nc4ccccc4)c3)nc3cncc(C4CC4)c23)CC1 [Example 606, 2-{4-[5-Cyclopropyl-2-(2-phenylamino-pyridin-4-yl)-pyrido[3,4-d]pyrimidin-4-yl]-piperazin-1-yl}-ethanol]"
5,< 100,"c1ccc(-c2cccc(Nc3cc(-c4nc(N5CCNCC5)c5c(C6CC6)cncc5n4)ccn3)c2)cc1 [Example 2051, Biphenyl-3-yl-[4-(5-cyclopropyl-4-piperazin-1-yl-pyrido[3,4-d]pyrimidin-2-yl)-pyridin-2-yl]-amine]"
6,< 100,"Fc1cccc(F)c1-c1cc2c(-c3nc(N4CCNCC4)c4c(C5CC5)cncc4n3)ccnc2[nH]1 [Example 2145, 5-Cyclopropyl-2-[2-(2,6-difluoro-phenyl)-1H-pyrroIo[2,3-b]pyridin-4-yl]-4-piperazin-1-yl-pyrido[3,4-d]pyrimidine]"
7,< 100,"Fc1cccc(F)c1Nc1cc(-c2nc(NC3CCCNC3)c3c(C4CC4)cncc3n2)ccn1 (stereo not drawn) [Example 842, {5-Cyclopropyl-2-[2-(2,6-difluoro-phenylamino)-pyridin-4-yl]-pyrido[3,4-d]pyrimidin-4-yl}-piperidin-3-yl-amine]"
8,< 100,"COc1ccc(Nc2cc(-c3nc(N4CCNCC4)c4c(C5CC5)cncc4n3)ccn2)cn1 [Example 547, [4-(5-Cyclopropyl-4-piperazin-1-yl-pyrido[3,4-d]pyrimidin-2-yl)-pyridin-2-yl]-(6-methoxy-pyridin-3-yl)-amine]"
9,< 100,"Cn1cnc2ccc(Nc3cc(-c4nc(N5CCNCC5)c5c(C6CC6)cncc5n4)ccn3)cc21 [Example 2149, [4-(5-Cyclopropyl-4-piperazin-1-yl-pyrido[3,4-d]pyrimidin-2-yl)-pyridin-2-yl]-(3-methyl-3H-benzoimidazol-5-yl)-amine]"
10,< 100,"Fc1cccc(F)c1Nc1cc(-c2nc(N[C@H]3CCNC3)c3c(C4CC4)cncc3n2)ccn1 [Example 2034, {5-Cyclopropyl-2-[2-(2,6-difluoro-phenylamino)-pyridin-4-yl]-pyrido[3,4-d]pyrimidin-4-yl}-(S)-pyrrolidin-3-yl-amine]"
11,< 100,"Fc1cc(F)c(F)c(Nc2cc(-c3nc(NC4CCNC4)c4c(C5CC5)cncc4n3)ccn2)n1 (stereo not drawn) [Example 2021, {5-Cyclopropyl-2-[2-(3,4,6-trifluoro-pyridin-2-ylamino)-pyridin-4-yl]-pyrido[3,4-d]pyrimidin-4-yl}-pyrrolidin-3-yl-amine]"
12,100 to 1000,"CC(O)c1ccccc1Nc1cc(-c2nc(N3CCNCC3)c3c(C4CC4)cncc3n2)ccn1 (stereo not drawn) [Example 560, 1-{2-[4-(5-Cyclopropyl-4-piperazin-1-yl-pyrido[3,4-d]pyrimidin-2-yl)-pyridin-2-ylamino]-phenyl}-ethanol]"
13,< 100,"c1ccc(Nc2cc(-c3nc(N4CC5CNCC5C4)c4c(C5CC5)cncc4n3)ccn2)cc1 (stereo not drawn) [Example 2131, {4-[5-Cyclopropyl-4-(hexahydro-pyrrolo[3,4-c]pyrrol-2-yl)-pyrido[3,4-d]pyrimidin-2-yl]-pyridin-2-yl}-phenyl-amine]"
14,< 100,"C[C@H]1CN(c2nc(-c3ccnc(Nc4c(F)cccc4F)c3)nc3cncc(C4CC4)c23)CCN1 [Example 692, {4-[5-Cyclopropyl-4-((S)-3-methyl-piperazin-1-yl)-pyrido[3,4-d]pyrimidin-2-yl]-pyridin-2-yl}-(2,6-difluoro-phenyl)-amine]"
15,< 100,"c1ccc(C2(c3cc4c(-c5nc(N6CCNCC6)c6c(C7CCC7)cncc6n5)ccnc4[nH]3)CCC2)cc1 [Example 2181, 5-Cyclobutyl-2-[2-(1-phenyl-cyclobutyl)-1H-pyrrolo[2,3-b]pyridin-4-yl]-4-piperazin-1-yl-pyrido[3,4-d]pyrimidine]"
16,< 100,"Fc1cnc(Nc2c(F)cccc2F)cc1-c1nc(N2CCNCC2)c2c(C3CC3)cncc2n1 [Example 764, [4-(5-Cyclopropyl-4-piperazin-1-yl-pyrido[3,4-d]pyrimidin-2-yl)-5-fluoro-pyridin-2-yl]-(2,6-difluoro-phenyl)-amine]"

# Continued, compound first:
row,SMILES,IC50 [nM]
1,"c1ccc(Nc2cc(-c3nc(N4CCN[C@@H](C5CC5)C4)c4c(C5CC5)cncc4n3)ccn2)cc1 [Example 273, {4-[5-Cyclopropyl-4-((S)-3-cyclopropyl-piperazin-1-yl)-pyrido[3,4-d]pyrimidin-2-yl]-pyridin-2-yl}-phenyl-amine]",< 100
2,"COc1cncc2nc(-c3ccncc3)nc(N3CCNC(C(F)(F)F)C3)c12 (stereo not drawn) [Example 43, 1-[5-methoxy-2-(pyridin-4-yl)pyrido[3,4-d]-pyrimidin-4-yl]-3-(trifluoromethyl)-piperazine]",1000 to 10000
3,"Fc1cccc(F)c1Nc1cc(-c2nc(C3=CCNCC3)c3c(C4CC4)cncc3n2)ccn1 [Example 789, {4-[5-Cyclopropyl-4-(1,2,3,6-tetrahydro-pyridin-4-yl)-pyrido[3,4-d]pyrimidin-2-yl]-pyridin-2-yl}-(2,6-difluoro-phenyl)-amine]",100 to 1000
4,"COc1cncc2nc(-c3ccnc(Nc4cnn(C5CCNCC5)c4)c3)nc(N3CCNCC3)c12 [Example 414, [4-(5-Methoxy-4-piperazin-1-yl-pyrido[3,4-d]pyrimidin-2-yl)-pyridin-2-yl]-(1-piperidin-4-yl-1H-pyrazol-4-yl)-amine]",< 100
5,"COc1cncc2nc(-c3ccnc(Nc4c(F)ccc(F)c4F)c3)nc(N3CCNCC3)c12 [Example 444, [4-(5-Methoxy-4-piperazin-1-yl-pyrido[3,4-d]pyrimidin-2-yl)-pyridin-2-yl]-(2,3,6-trifluoro-phenyl)-amine]",< 100
6,"Fc1cnccc1-c1nc(N[C@@H]2CCNC2)c2ccncc2n1 [Example 8, (3R)-N-[2-(3-fluoropyridin-4-yl)-pyrido[3,4-d]-pyrimidin-4-yl]-pyrrolidin-3-amine]",100 to 1000
7,"Cc1ccncc1Nc1cc(-c2nc(N3CCNCC3)c3c(C4CC4)cncc3n2)ccn1 [Example 478, [4-(5-Cyclopropyl-4-piperazin-1-yl-pyrido[3,4-d]pyrimidin-2-yl)-pyridin-2-yl]-(4-methyl-pyridin-3-yl)-amine]",< 100
8,"COc1cncc2nc(-c3ccncc3)nc(N3CCC(N)(C(=O)N[C@@H](CCO)c4ccc(Cl)cc4)CC3)c12 [Example 154, 4-Amino-1-(5-methoxy-2-pyridin-4-yl-pyrido[3,4-d]pyrimidin-4-yl)-piperidine-4-carboxylic acid [(S)-1-(4-chloro-phenyl)-3-hydroxy-propyl]-amide]",100 to 1000
9,"O[C@@H]1CCN(c2nc(-c3ccncc3)nc3cnccc23)C1 [Example 36, (3R)-1-[2-(pyridin-4-yl)pyrido[3,4-d]-pyrimidin-4-yl]-pyrrolidin-3-ol]",10000 to 40000
10,"COc1cncc2nc(-c3ccnc(Nc4cc(C)on4)c3)nc(N3CCNCC3)c12 [Example 496, [4-(5-Methoxy-4-piperazin-1-yl-pyrido[3,4-d]pyrimidin-2-yl)-pyridin-2-yl]-(5-methyl-isoxazol-3-yl)-amine]",10000 to 40000
11,"CN1CCN(c2nccc3c(NC[C@H](N)Cc4ccccc4)nc(-c4ccncc4)nc23)CC1 [Example 127, (R)—N^1-[8-(4-Methyl-piperazin-1-yl)-2-pyridin-4-yl-pyrido[3,4-d]pyrimidin-4-yl]-3-phenyl-propane-1,2-diamine]",10000 to 40000
12,"N[C@H](CNc1nc(-c2ccncc2)nc2c(-c3cccnc3)nccc12)Cc1ccccc1 [Example 99, N-[(2S)-2-amino-3-phenylpropyl]-8-(pyridin-3-yl)-2-(pyridin-4-yl)pyrido[3,4-d]pyrimidin-4-amine]",100 to 1000
13,"COc1ccccc1-c1nccc2c(NC[C@@H](N)Cc3ccccc3)nc(-c3ccncc3)nc12 [Example 93, N-[(2S)-2-amino-3-phenylpropyl]-8-(2-methoxy-phenyl)-2-(pyridin-4-yl)-pyrido[3,4-d]-pyrimidin-4-amine]",100 to 1000
14,"COc1cncc2nc(-c3ccnc(Nc4ccc(F)c(F)c4F)c3)nc(N3CCNCC3)c12 [Example 454, [4-(5-Methoxy-4-piperazin-1-yl-pyrido[3,4-d]pyrimidin-2-yl)-pyridin-2-yl]-(2,3,4-trifluoro-phenyl)-amine]",100 to 1000
